# Experimental data: patent US9884043B2, “RORgammaT inhibitors” (Merck Sharp & Dohme Corp., priority 2011, dated 2018)
# Biological target: T1, HIS-tagged RORγ-LBD (Homo sapiens, UniProt P51449)
# T1 construct: HIS-tagged RORγ-LBD was recombinantly expressed in SF9 cells using a baculovirus expression system; made in house; host or cells: SF9 cells, baculovirus; crude lysate used
# T1 sequence (P51449 269-508 limits assumed): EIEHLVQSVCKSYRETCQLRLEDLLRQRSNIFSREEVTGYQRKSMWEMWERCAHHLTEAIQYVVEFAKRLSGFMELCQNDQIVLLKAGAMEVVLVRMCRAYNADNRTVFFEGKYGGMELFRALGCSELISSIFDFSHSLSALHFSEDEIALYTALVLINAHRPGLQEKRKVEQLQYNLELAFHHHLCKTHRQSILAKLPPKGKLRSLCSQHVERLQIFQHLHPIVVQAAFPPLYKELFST
# Assay: TR-FRET assay (Protocol B), RORγ-LBD lysate / biotinylated SRC1-2 LXXLL peptide
# Format: biochemical
# Conditions: unpurified RORγ-LBD lysate ~10 nM, SRC1-2 peptide 450 nM
# Description: Activation of RORgammaT activity can be measured using e.g. biochemical TR-FRET assay. In such an assay, interaction of cofactor-derived peptides with human RORgammaT-Ligand Binding Domain (LBD) can be measured.
# To identify novel antagonists of RORgammaT, an assay was developed which employs the interaction of RORgammaT with its co-activator peptide SRC1_2. […] The assay was run following three slightly different protocols, i.e. Protocol A, Protocol B, and Protocol C, which are described below.
# TR-Fret Assay (Protocol B)
# HIS-tagged RORγ-LBD was recombinantly expressed in SF9 cells using a baculovirus expression system. The protein was not purified. Cells were lysed and the lysate was used as a source for RORγ-LBD for the assay. A 1:80 dilution of RORγ-LBD lysate in assay buffer (25 mM HEPES pH 7.0, 100 mM NaCl, 0.01% Tween, 0.1% BSA) was prepared and 5 μL was added to each well (RORγ-LBD final concentration ˜10 nM). Control wells received lysate from SF9 cells not expressing RORγ-LBD.
# Compounds to be tested were diluted to 100× final test concentration in DMSO and further diluted to 4× final test concentration using assay buffer to provide the test compound mixture. An aliquot (5 μL) of the test compound mixture was added to each well.
row,IC50,SMILES
1,< 50 nM,"CN(CCO)C(=O)c1ccc2c(-c3ccc(C(=O)O)cc3F)nn(C(=O)c3c(Cl)cccc3C(F)(F)F)c2c1 [Example 25R, 4-(1-(2-chloro-6-(trifluoromethyl)benzoyl)-6-((2-hydroxyethyl) (methyl)carbamoyl)-1H-indazol-3-yl)-3-fluorobenzoic acid]"
2,< 50 nM,"COc1cccc(F)c1C(=O)n1nc(-c2ccc(C(=O)O)cc2)c2c(F)cccc21 [Example 24AB, 4-(4-fluoro-1-(2-fluoro-6-methoxybenzoyl)-1H-indazol-3-yl)benzoic acid]"
3,> 10000 nM,"O=C(O)c1cc(-c2nn(C(=O)c3c(Cl)cccc3C(F)(F)F)c3cccc(F)c23)ccc1O [Example 24Z, 5-(1-(2-chloro-6-(trifluoromethyl)-benzoyl)-4-fluoro-1H-indazol-3-yl)-2-hydroxybenzoic acid]"
4,500 to 10000 nM,"CC(C)c1cc(-c2nn(C(=O)c3c(Cl)cccc3C(F)(F)F)c3cccc(F)c23)ccc1C(=O)O [Example 24S, 4-(1-(2-chloro-6-(trifluoromethyl)-benzoyl)-4-fluoro-1H-indazol-3-yl)-2-isopropylbenzoic acid]"
5,500 to 10000 nM,"O=C(O)c1ccc(-c2nn(C(=O)c3c(Cl)cccc3C(F)(F)F)c3cc(O)cc(F)c23)c(F)c1 [Example 24BD, 4-(1-(2-chloro-6-(trifluoromethyl)-benzoyl)-4-fluoro-6-hydroxy-1H-indazol-3-yl)-3-fluorobenzoic acid]"
6,50 to 500 nM,"CN(C)C(=O)c1ccc2c(-c3ccc(C(=O)O)c(F)c3)nn(C(=O)c3c(Cl)cccc3C(F)(F)F)c2c1 [Example 25I, 4-(1-(2-chloro-6-(trifluoromethyl)benzoyl)-6-(dimethyl-carbamoyl)-1H-indazol-3-yl)-2-fluorobenzoic acid]"
7,50 to 500 nM,"O=C(O)c1cc(F)c(-c2nn(C(=O)c3c(Cl)cccc3C(F)(F)F)c3cccnc23)cc1Cl [Example 24AJ, 2-chloro-4-(1-(2-chloro-6-(trifluoromethyl)-benzoyl)-1H-pyrazolo[4,3-b]pyridin-3-yl)-5-fluorobenzoic acid]"
8,< 50 nM,"CC(O)CNC(=O)c1ccc2c(-c3ccc(C(=O)O)cc3)nn(C(=O)c3c(Cl)cccc3C(F)(F)F)c2c1 (stereo not drawn) [Example 25O, 4-(1-(2-chloro-6-(trifluoromethyl)benzoyl)-6-(2-hydroxypropyl-carbamoyl)-1H-indazol-3-yl)benzoic acid]"
9,< 50 nM,"O=C(O)c1ccc(-c2nn(C(=O)c3c(Cl)cccc3C(F)(F)F)c3cc(CO)ccc23)cc1 [Example 24BE, 4-(1-(2-chloro-6-(trifluoromethyl)-benzoyl)-6-(hydroxymethyl)-1H-indazol-3-yl)benzoic acid]"
10,< 50 nM,"CN(CCO)C(=O)c1ccc2c(-c3ccc(C(=O)O)cc3)nn(C(=O)c3c(Cl)cccc3C(F)(F)F)c2c1 [Example 25Q, 4-(1-(2-chloro-6-(trifluoromethyl)benzoyl)-6-((2-hydroxyethyl) (methyl)carbamoyl)-1H-indazol-3-yl)benzoic acid]"
11,< 50 nM,"COc1cccc(F)c1C(=O)n1nc(-c2ccc(C(=O)O)cc2F)c2c(F)cccc21 [Example 24AA, 3-fluoro-4-(4-fluoro-1-(2-fluoro-6-methoxybenzoyl)-1H-indazol-3-yl)benzoic acid]"
12,< 50 nM,"O=C(O)c1ccc(-c2nn(C(=O)c3c(Cl)cccc3C(F)(F)F)c3cccnc23)c(F)c1 [Example 24C, sodium 4-(1-(2-chloro-6-(trifluoromethyl)benzoyl)-1H-pyrazolo[4,3-b]pyridin-3-yl)-3-fluorobenzoate]"
13,< 50 nM,"O=C(O)c1ccc(-c2nn(C(=O)c3c(Cl)cccc3C(F)(F)F)c3cccnc23)cc1F [Example 24AH, 4-(1-(2-chloro-6-(trifluoromethyl)-benzoyl)-1H-pyrazolo[4,3-b]pyridin-3-yl)-2-fluorobenzoic acid]"
14,< 50 nM,"O=C(O)c1ccc(-c2nn(C(=O)c3c(Cl)cccc3C(F)(F)F)c3cc(C(=O)NCCCCO)ccc23)cc1 [Example 25P, 4-(1-(2-chloro-6-(trifluoromethyl)benzoyl)-6-(4-hydroxybutyl-carbamoyl)-1H-indazol-3-yl)benzoic acid]"
15,< 50 nM,"O=C(O)c1ccc(-c2nn(C(=O)c3c(Cl)cccc3C(F)(F)F)c3cc(Br)cc(F)c23)cc1 [Example 24AX, 4-(6-bromo-1-(2-chloro-6-(trifluoromethyl)-benzoyl)-4-fluoro-1H-indazol-3-yl) benzoic acid]"
16,50 to 500 nM,"COc1cc(-c2nn(C(=O)c3c(Cl)cccc3C(F)(F)F)c3cccnc23)ccc1C(=O)O [Example 24AI, 4-(1-(2-chloro-6-(trifluoromethyl)-benzoyl)-1H-pyrazolo[4,3-b]pyridin-3-yl)-2-methoxybenzoic acid]"
17,< 50 nM,"O=C(O)c1ccc(-c2nn(C(=O)c3c(Cl)cccc3C(F)(F)F)c3cc(C(=O)NCCO)ccc23)cc1 [Example 25A, sodium 4-(1-(2-chloro-6-(trifluoromethyl)benzoyl)-6-(2-hydroxyethylcarbamoyl)-1H-indazol-3-yl)benzoate]"
18,500 to 10000 nM,"CC(C)c1cc(-c2nn(C(=O)c3c(Cl)cccc3C(F)(F)F)c3ccccc23)ccc1C(=O)O [Example 24AP, 4-(1-(2-chloro-6-(trifluoromethyl)-benzoyl)-1H-indazol-3-yl)-2-isopropylbenzoic acid]"
19,500 to 10000 nM,"O=C(O)c1cccc(-c2nn(C(=O)c3c(Cl)cccc3C(F)(F)F)c3cccc(F)c23)c1 [Example 24E, 3-(1-(2-chloro-6-(trifluoromethyl)-benzoyl)-4-fluoro-1H-indazol-3-yl)benzoic acid]"
20,< 50 nM,"O=C(O)c1ccc(-c2nn(C(=O)c3c(Cl)cccc3C(F)(F)F)c3cc(C(=O)NCCCO)ccc23)c(F)c1 [Example 25M, 4-(1-(2-chloro-6-(trifluoromethyl)benzoyl)-6-(3-hydroxypropyl-carbamoyl)-1H-indazol-3-yl)-3-fluorobenzoic acid]"
21,< 50 nM,"O=C(O)c1cc(F)c(-c2nn(C(=O)c3c(Cl)cccc3C(F)(F)F)c3cccnc23)cc1F [Example 24AK, 4-(1-(2-chloro-6-(trifluoromethyl)-benzoyl)-1H-pyrazolo[4,3-b]pyridin-3-yl)-2,5-difluorobenzoic acid]"
22,< 50 nM,"COc1cccc(F)c1C(=O)n1nc(-c2ccc(C(=O)O)cc2F)c2ccccc21 [Example 24AT, 3-fluoro-4-(1-(2-fluoro-6-methoxybenzoyl)-1H-indazol-3-yl)benzoic acid]"
23,< 50 nM,"O=C(O)c1ccc(-c2nn(C(=O)c3c(Cl)cccc3C(F)(F)F)c3cccc(F)c23)c(F)c1F [Example 24V, 4-(1-(2-chloro-6-(trifluoromethyl)-benzoyl)-4-fluoro-1H-indazol-3-yl)-2,3-difluorobenzoic acid]"
24,< 50 nM,"COc1cc(-c2nn(C(=O)c3c(Cl)cccc3C(F)(F)F)c3cccc(F)c23)c(F)cc1C(=O)O [Example 24Y, 4-(1-(2-chloro-6-(trifluoromethyl)-benzoyl)-4-fluoro-1H-indazol-3-yl)-5-fluoro-2-methoxybenzoic acid]"
25,< 50 nM,"O=C(O)c1ccc(-c2nn(C(=O)c3c(Cl)cccc3C(F)(F)F)c3cc(C(=O)NCCCO)ccc23)cc1 [Example 25L, 4-(1-(2-chloro-6-(trifluoromethyl)benzoyl)-6-(3-hydroxypropyl-carbamoyl)-1H-indazol-3-yl)benzoic acid]"
26,< 50 nM,"Cc1cc(-c2nn(C(=O)c3c(Cl)cccc3C(F)(F)F)c3cccc(F)c23)ccc1C(=O)O [Example 24P, 4-(1-(2-chloro-6-(trifluoromethyl)-benzoyl)-4-fluoro-1H-indazol-3-yl)-2-methylbenzoic acid]"
27,< 50 nM,"CN(C)C(=O)c1ccc2c(-c3ccc(C(=O)O)c(O)c3)nn(C(=O)c3c(Cl)cccc3C(F)(F)F)c2c1 [Example 26J, 4-(1-(2-chloro-6-(trifluoromethyl)benzoyl)-6-(dimethyl-carbamoyl)-1H-indazol-3-yl)-2-hydroxybenzoic acid]"
28,< 50 nM,"O=C(O)c1ccc(-c2nn(C(=O)c3c(Cl)cccc3C(F)(F)F)c3ccccc23)c(F)c1 [Example 24AR, sodium 4-(1-(2-chloro-6-(trifluoromethyl)-benzoyl)-1H-indazol-3-yl)-3-fluoro benzoate]"
29,< 50 nM,"O=C(O)c1c(F)cc(-c2nn(C(=O)c3c(Cl)cccc3C(F)(F)F)c3cccc(F)c23)cc1F [Example 24R, 4-(1-(2-chloro-6-(trifluoromethyl)-benzoyl)-4-fluoro-1H-indazol-3-yl)-2,6-difluorobenzoic acid]"
30,< 50 nM,"O=C(O)c1ccc(-c2nn(C(=O)c3c(Cl)cccc3C(F)(F)F)c3cc(C(=O)NCCO)ccc23)c(F)c1 [Example 25H, 4-(1-(2-chloro-6-(trifluoromethyl)benzoyl)-6-(2-hydroxyethyl-carbamoyl)-1H-indazol-3-yl)-3-fluorobenzoic acid]"
